# Measured values taken from patent publication US10793542B2, “Hetroarylamine compounds for modulating the hedgehog pathway and preparing method and uses thereof” (DEVELOPMENT CENTER FOR BIOTECHNOLOGY, priority 2016, dated 2020).
# Experiments:
# Assay type in all cases: cell-based
# [1] = biological target: T1, Smo wild type (Homo sapiens, UniProt Q99835); experiment: Reporter assay of C3H10T1/2-Gli-Luc cells transfected with wild-type Smo, without SAG; conditions: C3H10T1/2 cells transfected with pLPCX-SMO, no SAG, 48 hr; read-out: Inhibition of C3H10T1/2-Gli-Luc-Smo-WT [IC50
# T1 construct: expressed in transfected cells; host or cells: C3H10T1/2 cells (ATCC CCL-226), transient transfection with pLPCX-SMO
# How it was run: (§1)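 C3H10T1/2-Gli-Luc cells transiently transfected with wild-type or D473H SMO, replated in 0.5% FBS RPMI and incubated with compounds 48 h at 37 °C without SAG. Dual-luciferase, firefly normalized to Renilla; scaled to DMSO (100%) and 10 μM ALLO-2 (0%); IC50 by nonlinear regression.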
# [2] = test system: hedgehog pathway (pGL3-7xGli-Luciferase reporter in C3H10T1/2 cells); experiment: Transient transfection of C3H10T1/2 and Gli-Luc reporter assay with SAG stimulation; conditions: Mus musculus, C3H 10T1/2, SAG 20 nM, 48 hr, read-out: Inhibition of Gli-Luc expression [IC50
# How it was run: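 C3H10T1/2 cells were transiently transfected with a 7xGli-firefly luciferase reporter and a TK-Renilla control, then treated with serially diluted compounds plus 20 nM SAG in 0.5% FBS for 48 h at 37 °C. Firefly signal was normalized to Renilla and scaled between DMSO with SAG (100%) and without SAG (0%). IC50 was obtained by nonlinear regression.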
# [3] = biological target: T2, Smo D473H mutant (Homo sapiens, UniProt Q99835, D473H); experiment: Reporter assay of C3H10T1/2-Gli-Luc cells transfected with Smo D473H mutant, without SAG; conditions: C3H10T1/2 cells transfected with pLPCX-SMO-D473H, no SAG, 48 hr; read-out: Inhibition of C3H10T1/2-Gli-Luc-Smo-D473H [IC50
# T2 construct: expressed in transfected cells; host or cells: C3H10T1/2 cells (ATCC CCL-226), transient transfection with pLPCX-SMO-D473H
# How it was run: as §1
# T1 sequence (Q99835 28-787): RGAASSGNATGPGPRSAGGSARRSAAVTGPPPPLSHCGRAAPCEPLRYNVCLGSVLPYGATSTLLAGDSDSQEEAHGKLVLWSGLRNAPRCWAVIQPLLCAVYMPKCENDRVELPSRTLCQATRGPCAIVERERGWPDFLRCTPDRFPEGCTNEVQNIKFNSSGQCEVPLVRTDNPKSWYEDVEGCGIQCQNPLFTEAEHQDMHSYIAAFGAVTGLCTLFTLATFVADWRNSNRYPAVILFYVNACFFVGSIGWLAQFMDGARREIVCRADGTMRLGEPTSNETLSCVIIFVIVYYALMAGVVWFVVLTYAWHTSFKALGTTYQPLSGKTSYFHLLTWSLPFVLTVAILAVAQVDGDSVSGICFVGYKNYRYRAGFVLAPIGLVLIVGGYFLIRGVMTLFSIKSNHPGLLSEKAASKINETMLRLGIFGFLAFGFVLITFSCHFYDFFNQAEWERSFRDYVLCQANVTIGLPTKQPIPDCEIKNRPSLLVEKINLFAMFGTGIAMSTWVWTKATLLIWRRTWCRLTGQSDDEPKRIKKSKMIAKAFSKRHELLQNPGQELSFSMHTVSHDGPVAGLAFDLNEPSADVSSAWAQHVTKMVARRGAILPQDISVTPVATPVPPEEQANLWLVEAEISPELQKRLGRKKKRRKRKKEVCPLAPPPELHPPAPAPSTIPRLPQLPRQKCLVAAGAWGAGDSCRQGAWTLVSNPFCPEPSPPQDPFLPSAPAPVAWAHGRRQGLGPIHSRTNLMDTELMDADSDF
# T2 sequence (Q99835 28-787 D473H): as the sequence (Q99835 28-787) above, with D446H counted along it
IC50 [1] [nM],IC50 [2] [nM],IC50 [3] [nM],Compound
< 100,< 100,100 to 1000,"CSc1cnc(Nc2ccc(C(=O)Nc3cccc(CN4CCOCC4)c3)cc2)nc1-c1ccc(OC(F)(F)F)cc1 [Compound 65, 4-[5-Methylsulfanyl-4-(4-trifluoromethoxy-phenyl)-pyrimidin-2-ylamino]-N-(3-morpholin-4-ylmethyl-phenyl)-benzamide]"
< 100,< 100,100 to 1000,"CCN(CC)Cc1ccc(C)c(NC(=O)c2ccc(Nc3ncc(SC)c(-c4ccc(OC(F)(F)F)cc4)n3)nc2)c1 [Compound 66, N-(5-Diethylaminomethyl-2-methyl-phenyl)-6-[5-methylsulfanyl-4-(4-trifluoromethoxy-phenyl)-pyrimidin-2-ylamino]-nicotinamide]"
< 100,< 100,100 to 1000,"CSc1cnc(Nc2ccc(C(=O)Nc3cc(CN4CCOCC4)ccc3C)cc2)nc1-c1ccc(F)nc1 [Compound 67, 4-[4-(6-Fluoro-pyridin-3-yl)-5-methylsulfanyl-pyrimidin-2-ylamino]-N-(2-methyl-5-morpholin-4-ylmethyl-phenyl)-benzamide]"
< 100,100 to 1000,100 to 1000,"CSc1cnc(Nc2ccc(C(=O)Nc3cc(CN4CCOCC4)ccc3C)cc2)nc1-c1ccc(C(F)(F)F)nc1 [Compound 68, N-(2-Methyl-5-morpholin-4-ylmethyl-phenyl)-4-[5-methylsulfanyl-4-(6-trifluoromethyl-pyridin-3-yl)-pyrimidin-2-ylamino]-benzamide]"
< 100,< 100,100 to 1000,"CSc1cnc(Nc2ccc(C(=O)Nc3cccc(CN4CCOCC4)c3)cc2)nc1-c1ccc(C(F)(F)F)nc1 [Compound 69, 4-[5-Methylsulfanyl-4-(6-trifluoromethyl-pyridin-3-yl)-pyrimidin-2-ylamino]-N-(3-morpholin-4-ylmethyl-phenyl)-benzamide]"
< 100,< 100,< 100,"CSc1cnc(Nc2ccc(C(=O)Nc3cc(CN4CCOCC4)ccc3F)cc2)nc1-c1ccc(OC(F)(F)F)cc1 [Compound 70, N-(2-Fluoro-5-morpholin-4-ylmethyl-phenyl)-4-[5-methylsulfanyl-4-(4-trifluoromethoxy-phenyl)-pyrimidin-2-ylamino]-benzamide]"
< 100,< 100,< 100,"CSc1cnc(Nc2ccc(C(=O)Nc3cc(CN4CCOCC4)ccc3F)cc2)nc1-c1ccc(F)cc1 [Compound 71, N-(2-Fluoro-5-morpholin-4-ylmethyl-phenyl)-4-[4-(4-fluoro-phenyl)-5-methylsulfanyl-pyrimidin-2-ylamino]-benzamide]"
< 100,< 100,< 100,"CCOc1cnc(Nc2ccc(C(=O)Nc3cc(CN4CCOCC4)ccc3C)cc2)nc1-c1ccc(OC(F)(F)F)cc1 [Compound 72, 4-[5-Ethoxy-4-(4-trifluoromethoxy-phenyl)-pyrimidin-2-ylamino]-N-(2-methyl-5-morpholin-4-ylmethyl-phenyl)-benzamide]"
< 100,< 100,100 to 1000,"CCOc1cnc(Nc2ccc(C(=O)Nc3cc(CN4CCN(C)CC4)ccc3C)cc2)nc1-c1ccc(OC(F)(F)F)cc1 [Compound 73, 4-[5-Ethoxy-4-(4-trifluoromethoxy-phenyl)-pyrimidin-2-ylamino]-N-[2-methyl-5-(4-methyl-piperazin-1-ylmethyl)-phenyl]-benzamide]"
< 100,< 100,100 to 1000,"CCOc1cnc(Nc2ccc(C(=O)Nc3cc(CN(CC)CC)ccc3C)cc2)nc1-c1ccc(OC(F)(F)F)cc1 [Compound 74, N-(5-Diethylaminomethyl-2-methyl-phenyl)-4-[5-ethoxy-4-(4-trifluoromethoxy-phenyl)-pyrimidin-2-ylamino]-benzamide]"
< 100,< 100,100 to 1000,"CCOc1cnc(Nc2ccc(C(=O)Nc3cc(CN4CCOCC4)ccc3C)cc2)nc1-c1ccc(F)cc1 [Compound 75, 4-[5-Ethoxy-4-(4-fluoro-phenyl)-pyrimidin-2-ylamino]-N-(2-methyl-5-morpholin-4-ylmethyl-phenyl)-benzamide]"
< 100,< 100,< 100,"CCOc1cnc(Nc2ccc(C(=O)Nc3cc(CN4CCN(C)CC4)ccc3C)cc2)nc1-c1ccc(F)cc1 [Compound 76, 4-[5-Ethoxy-4-(4-fluoro-phenyl)-pyrimidin-2-ylamino]-N-[2-methyl-5-(4-methyl-piperazin-1-ylmethyl)-phenyl]-benzamide]"
< 100,< 100,100 to 1000,"CCOc1cnc(Nc2ccc(C(=O)Nc3cc(CN(CC)CC)ccc3C)cc2)nc1-c1ccc(F)cc1 [Compound 77, N-(5-Diethylaminomethyl-2-methyl-phenyl)-4-[5-ethoxy-4-(4-fluoro-phenyl)-pyrimidin-2-ylamino]-benzamide]"
100 to 1000,100 to 1000,100 to 1000,"CSc1cnc(Nc2ccc(C(=O)Nc3cc(CN4CCNCC4)ccc3C)cc2F)nc1-c1ccc(F)cc1 [Compound 78, 3-Fluoro-4-[4-(4-fluoro-phenyl)-5-methylsulfanyl-pyrimidin-2-ylamino]-N-(2-methyl-5-piperazin-1-ylmethyl-phenyl)-benzamide]"
100 to 1000,< 100,100 to 1000,"COc1cnc(Nc2ccc(C(=O)Nc3cc(CN4CCNCC4)ccc3C)cc2)nc1-c1ccc(F)cc1 [Compound 79, 4-[4-(4-Fluoro-phenyl)-5-methoxy-pyrimidin-2-ylamino]-N-(2-methyl-5-piperazin-1-ylmethyl-phenyl)-benzamide]"
100 to 1000,< 100,100 to 1000,"COc1cnc(Nc2ccc(C(=O)Nc3cc(CN4CCNCC4)ccc3C)cc2F)nc1-c1ccc(F)cc1 [Compound 80, 3-Fluoro-4-[4-(4-fluoro-phenyl)-5-methoxy-pyrimidin-2-ylamino]-N-(2-methyl-5-piperazin-1-ylmethyl-phenyl)-benzamide]"
< 100,< 100,< 100,"CSc1cnc(Nc2ccc(C(=O)Nc3cc(CN4CCOCC4)ccc3C)cc2)cc1-c1ccc(OC(F)(F)F)cc1 [Compound 81, N-(2-Methyl-5-morpholin-4-ylmethyl-phenyl)-4-[5-methylsulfanyl-4-(4-trifluoromethoxy-phenyl)-pyridin-2-ylamino)-benzamide]"
< 100,< 100,< 100,"CSc1cnc(Nc2ccc(C(=O)Nc3cc(CN4CCN(C)CC4)ccc3C)cc2)cc1-c1ccc(OC(F)(F)F)cc1 [Compound 82, N-[2-Methyl-5-(4-methyl-piperazin-1-ylmethyl)-phenyl]-4-[5-methylsulfanyl-4-(4-trifluoromethoxy-phenyl)-pyridin-2-ylamino]-benzamide]"
< 100,< 100,< 100,"CSc1cnc(Nc2ccc(C(=O)Nc3cc(CN(C)C)ccc3C)cc2)cc1-c1ccc(OC(F)(F)F)cc1 [Compound 83, N-(5-Dimethylaminomethyl-2-methyl-phenyl)-4-[5-methylsulfanyl-4-(4-trifluoromethoxy-phenyl)-pyridin-2-ylamino]-benzamide]"
< 100,< 100,100 to 1000,"CSc1cnc(Nc2ccc(C(=O)Nc3cc(CN4CCOCC4)ccc3C)cc2)cc1-c1ccc(F)cc1 [Compound 84, 4-((4-(4-fluorophenyl)-5-(methylthio)pyridin-2-yl)amino)-N-(2-methyl-5-(morpholinomethyl)phenyl)benzamide]"
< 100,< 100,< 100,"Cc1ccc(CN2CCOCC2)cc1NC(=O)c1ccc(Nc2ncc([S+](C)[O-])c(-c3ccc(OC(F)(F)F)cc3)n2)cc1 (stereo not drawn) [Compound 85, 4-[5-Methanesulfinyl-4-(4-trifluoromethoxy-phenyl)-pyrimidin-2-ylamino]-N-(2-methyl-5-morpholin-4-ylmethyl-phenyl)-benzamide]"
< 100,< 100,< 100,"CCN(CC)Cc1ccc(C)c(NC(=O)c2ccc(Nc3cc(-c4ccc(OC(F)(F)F)cc4)c(SC)cn3)cc2)c1 [Compound 87, N-(5-((diethylamino)methyl)-2-methylphenyl)-4-((5-(methylthio)-4-(4-(trifluoromethoxy)phenyl)pyridin-2-yl)amino)benzamide]"
< 100,< 100,< 100,"Cc1ccc(CN2CCOCC2)cc1NC(=O)c1ccc(Nc2ncc(N)c(-c3ccc(OC(F)(F)F)cc3)n2)cc1 [Compound 88, 4-((5-amino-4-(4-(trifluoromethoxy)phenyl)pyrimidin-2-yl)amino)-N-(2-methyl-5-(morpholinomethyl)phenyl)benzamide]"
< 100,< 100,100 to 1000,"CSc1cnc(Nc2ccc(C(=O)Nc3cc(CN4CCN(C)CC4)ccc3C)cc2)cc1-c1ccc(F)cc1 [Compound 89, 4-((4-(4-fluorophenyl)-5-(methylthio)pyridin-2-yl)amino)-N-(2-methyl-5-((4-methylpiperazin-1-yl)methyl)phenyl)benzamide]"
